Results reported in US20250368667A1, “USP1 INHIBITOR” (Shanghai Qilu Pharmaceutical Research and Development …, priority 2022, published 2025).

Target: recombinant human His6-USP1/His6-UAF1 composite protein (Homo sapiens (Human), UniProt O94782)
Test: USP1 enzyme activity detection (Ub-Rho fluorescence)
Format: biochemical
Conditions: USP1/UAF1, Ub-Rho substrate 300 nM, 1 hour pre-incubation; read-out: IC50 (enzymatic inhibition of USP1)

recombinant human His6-USP1/His6-UAF1 composite protein, sequence (O94782 whole entry): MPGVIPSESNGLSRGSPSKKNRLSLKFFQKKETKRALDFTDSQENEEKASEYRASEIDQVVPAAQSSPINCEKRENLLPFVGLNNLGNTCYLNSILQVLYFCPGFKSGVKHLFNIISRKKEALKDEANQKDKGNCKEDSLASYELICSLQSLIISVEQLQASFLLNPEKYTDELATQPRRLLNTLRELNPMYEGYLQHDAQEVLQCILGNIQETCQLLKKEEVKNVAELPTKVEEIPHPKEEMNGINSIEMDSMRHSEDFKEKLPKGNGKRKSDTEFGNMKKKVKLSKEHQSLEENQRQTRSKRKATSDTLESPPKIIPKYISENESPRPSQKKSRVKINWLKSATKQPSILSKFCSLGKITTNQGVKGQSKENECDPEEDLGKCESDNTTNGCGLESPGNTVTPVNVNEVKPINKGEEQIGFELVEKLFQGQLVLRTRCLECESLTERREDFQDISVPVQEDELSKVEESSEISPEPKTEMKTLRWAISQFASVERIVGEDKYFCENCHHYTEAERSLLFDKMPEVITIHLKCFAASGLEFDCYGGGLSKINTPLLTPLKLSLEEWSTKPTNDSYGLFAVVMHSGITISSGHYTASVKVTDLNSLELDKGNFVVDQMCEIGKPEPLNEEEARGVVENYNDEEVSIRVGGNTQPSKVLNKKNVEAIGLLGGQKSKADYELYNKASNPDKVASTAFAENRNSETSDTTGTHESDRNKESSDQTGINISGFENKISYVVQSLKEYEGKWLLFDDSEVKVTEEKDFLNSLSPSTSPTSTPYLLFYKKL
recombinant human His6-USP1/His6-UAF1 composite protein, sequence (Q8TAF3 whole entry partner): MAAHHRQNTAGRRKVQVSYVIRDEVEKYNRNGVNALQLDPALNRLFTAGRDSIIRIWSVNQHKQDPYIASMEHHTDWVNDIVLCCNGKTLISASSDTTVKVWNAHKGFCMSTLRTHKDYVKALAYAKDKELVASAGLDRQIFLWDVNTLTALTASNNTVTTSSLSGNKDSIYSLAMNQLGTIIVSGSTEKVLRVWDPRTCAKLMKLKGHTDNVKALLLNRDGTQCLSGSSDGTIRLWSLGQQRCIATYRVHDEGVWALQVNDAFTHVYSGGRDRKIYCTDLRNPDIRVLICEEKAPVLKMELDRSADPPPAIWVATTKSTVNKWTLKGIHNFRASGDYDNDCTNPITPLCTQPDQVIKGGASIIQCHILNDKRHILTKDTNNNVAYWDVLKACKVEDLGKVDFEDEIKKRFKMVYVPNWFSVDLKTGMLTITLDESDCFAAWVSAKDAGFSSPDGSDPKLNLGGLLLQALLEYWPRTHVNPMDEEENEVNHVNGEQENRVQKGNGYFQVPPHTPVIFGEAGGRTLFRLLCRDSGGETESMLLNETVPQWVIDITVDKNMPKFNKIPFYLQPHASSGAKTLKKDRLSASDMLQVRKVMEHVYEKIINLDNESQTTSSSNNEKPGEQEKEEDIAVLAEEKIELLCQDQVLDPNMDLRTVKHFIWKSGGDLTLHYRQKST

| Structure (SMILES) | IC50 [nM] |
| --- | --- |
| COc1ncnc(C2CC2)c1-c1ncc2c3sncc3n(Cc3ccc(-c4nc(C(F)(F)F)cn4C)cc3)c2n1 [Compound 60] | 5.34 |
| COc1ncnc(C2CC2)c1-c1ncc2c3ccncc3n(Cc3ccc4c(c3)CCn3cc(C(F)(F)F)nc3-4)c2n1 [Compound 65] | 59.6 |
| COc1ncnc(C2CC2)c1-c1ncc2c3ccncc3n(Cc3ccc4c(ccn5cc(C(F)(F)F)nc45)c3)c2n1 [Compound 67] | 36.1 |
| COc1ncnc(C2CC2)c1-c1ncc2c3ccncc3n(Cc3ccc4n3CCCn3cc(C(F)(F)F)nc3-4)c2n1 [Compound 68] | 39.2 |
| COc1ncnc(C2CC2)c1-c1ncc2c3ccc(C#N)cc3n(Cc3ccc4c(c3)Cn3cc(C(F)(F)F)nc3-4)c2n1 [Compound 70] | 191 |
| COc1ncnc(C2CC2)c1-c1ncc2c3ccncc3n(Cc3ccc4c(c3)Cn3cc(C(F)(F)F)nc3-4)c2n1 [Compound 71] | 108 |
| COc1ncnc(C2CC2)c1-c1ncc2c3cccnc3n(Cc3ccc4c(c3)Cn3cc(C(F)(F)F)nc3-4)c2n1 [Compound 72] | 42.9 |
| COc1ncnc(C2CC2)c1-c1ncc2c3ccc(F)nc3n(Cc3ccc(-c4nc(C(F)(F)F)cn4C)cc3)c2n1 [Compound 73] | 4.9 |
| COc1ncnc(C2CC2)c1-c1ncc2c3ccncc3n(Cc3ccc4c(c3)OCCn3cc(C(F)(F)F)nc3-4)c2n1 [Compound 76] | 25.3 |
| COc1ncnc(C2CC2)c1-c1ncc2c3ccc(C#N)cc3n(Cc3cc(O)c4c(c3)OCCn3cc(C(F)(F)F)nc3-4)c2n1 [Compound 77] | 99.1 |
| COc1ncnc(C2CC2)c1-c1ncc2c3ccncc3n(Cc3ccc(-c4nc(C(F)(F)F)cn4C)cc3)c2n1 [Compound 78] | 4.39 |
| CC(C)c1ncccc1-c1ncc2c3ccncc3n(Cc3ccc(-c4nc(C(F)(F)F)cn4C)cc3)c2n1 [Compound 80] | 6.55 |
| COc1cnn(C2CCC2)c1-c1ncc2c3ccncc3n(Cc3ccc(-c4nc(C(F)(F)F)cn4C)cc3)c2n1 [Compound 81] | 7.15 |
| COc1ncnc(C2CC2)c1-c1ncc2c3ccc(N(C)S(C)(=O)=O)cc3n(Cc3ccc(-c4nc(C(F)(F)F)cn4C)cc3)c2n1 [Compound 82] | 4.45 |
| COc1ncnc(C2CC2)c1-c1ncc2c3ccc(CS(C)(=O)=O)cc3n(Cc3ccc4c(c3)CCCn3cc(C(F)(F)F)nc3-4)c2n1 [Compound 83] | 4.62 |
| CN1CCc2cccc(-c3ncc4c5ccncc5n(Cc5ccc(-c6nc(C(F)(F)F)cn6C)cc5)c4n3)c21 [Compound 84] | 59 |
| Cn1cc(C(F)(F)F)nc1-c1ccc(Cn2c3cnccc3c3cnc(-c4cccc5ccn(C)c45)nc32)cc1 [Compound 85] | 73.5 |
| COc1ncnc(C2CC2)c1-c1ncc2c3cn[nH]c3n(Cc3ccc(C4NC(C(F)(F)F)=CN4C(C)C)cc3)c2n1 (centres unmarked) [Compound 89] | 4.7 |
| COc1ncnc(C2CC2)c1-c1ncc2c3ccc(C#N)cc3n(Cc3ccc4c(c3)COCCn3cc(C(F)(F)F)nc3-4)c2n1 [Compound 92] | 25.9 |
| COc1ncnc(C2CC2)c1-c1ncc2c3ccc(P(C)(C)=O)cc3n(Cc3ccc4c(c3)CCCn3cc(C(F)(F)F)nc3-4)c2n1 [Compound 96] | 4.89 |
| COc1ncnc(C2CC2)c1-c1ncc2c3cnn(C)c3n(Cc3ccc(-c4nc(C(F)(F)F)cn4C(C)C)cc3)c2n1 [Compound 106] | 4.56 |

| Structure (SMILES) | IC50 [nM] |
| --- | --- |
| COc1ncnc(C2CC2)c1-c1ncc2c3cn(C)nc3n(Cc3ccc(-c4nc(C(F)(F)F)cn4C(C)C)c(F)c3)c2n1 [Compound 107] | 4.65 |
| COc1ncnc(C2CC2)c1-c1ncc2c3cn(C)nc3n(Cc3ccc(-c4nc(C(F)(F)F)cn4C)cc3)c2n1 [Compound 108] | 7.52 |
| COc1ncnc(C2CC2)c1-c1ncc2c3ccc(P4(=O)CCCC4)cc3n(Cc3ccc(-c4nc(C(F)(F)F)cn4C(C)C)cc3)c2n1 [Compound 109] | 11.9 |
| [2H]C([2H])([2H])n1cc2c3cnc(-c4c(OC)ncnc4C4CC4)nc3n(Cc3ccc(-c4nc(C(F)(F)F)cn4C(C)C)cc3)c2n1 [Compound 110] | 9.5 |
| COc1ncnc(C2CC2)c1-c1ncc2c3ncncc3n(Cc3ccc4c(c3)CCCn3cc(C(F)(F)F)nc3-4)c2n1 [Compound 112] | 23.9 |
| COc1ncnc(C2CC2)c1-c1ncc2c3ccnc(F)c3n(Cc3ccc(-c4nc(C(F)(F)F)cn4C)cc3)c2n1 [Compound 116] | 6.48 |
| COc1ncnc(C2CC2)c1-c1ncc2c3ccc(C#N)cc3n(Cc3cc4c(cn3)-c3nc(C(F)(F)F)cn3CCC4)c2n1 [Compound 119] | 17.8 |
| COc1ncnc(C2CC2)c1-c1ncc2c3ccc(C(O)(C(F)(F)F)C(F)(F)F)cc3n(Cc3ccc(-c4nc(C(F)(F)F)cn4C)cc3)c2n1 [Compound 122] | 36 |
| COc1ncnc(C2CC2)c1-c1ncc2c3cnn(C)c3n(Cc3ccc4c(c3)CCCn3cc(C(F)(F)F)nc3-4)c2n1 [Compound 123] | 13.7 |
| COc1ncnc(C2CC2)c1-c1ncc2c3ccncc3n(C3CCc4cc(-c5nc(C(F)(F)F)cn5C)ccc43)c2n1 (centres unmarked) [Compound 124] | 38.5 |
| COc1ncnc(C2CC2)c1-c1ncc2c3ccc(C#N)cc3n(Cc3ccc(-c4nc(C(F)(F)F)c5ccccn45)cc3)c2n1 [Compound 126] | 7.1 |
| COc1ncnc(C2CC2)c1-c1ncc2c3ccc(C)nc3n(Cc3ccc4c(c3)CCCn3cc(C(F)(F)F)nc3-4)c2n1 [Compound 128] | 4.8 |
| COc1ncnc(C2CC2)c1-c1ncc2c3ccc(C#N)cc3n(Cc3ccc(-c4nc(C(F)(F)F)c5cnccn45)cc3)c2n1 [Compound 129] | 36 |
| COc1ncnc(C2CC2)c1-c1ncc2c3cn(C)nc3n(Cc3ccc(-c4nc(C(F)(F)F)sc4C)cc3)c2n1 [Compound 131] | 4.68 |
| COc1ncnc(C2CC2)c1-c1ncc2c3cn(C)nc3n(Cc3ccc4c(c3)C3C(Cn5cc(C(F)(F)F)nc5-4)C3(F)F)c2n1 (centres unmarked) [Compound 133] | 22 |
| COc1ncnc(C2CC2)c1-c1ncc2c3ccc(N4CCOCC4)nc3n(Cc3ccc4c(c3)CCCn3cc(C(F)(F)F)nc3-4)c2n1 [Compound 135] | 4.4 |
| COc1ncnc(C2CC2)c1-c1ncc2c3cn(C)nc3n(Cc3ccc(-c4nc(C(F)(F)F)c5n4CCOC5)cc3)c2n1 [Compound 139] | 23.5 |
| COc1ncnc(C2CC2)c1-c1ncc2c3ccc(C#N)nc3n(Cc3ccc4c(c3)CCCn3cc(C(F)(F)F)nc3-4)c2n1 [Compound 140] | 7.29 |
| COc1ncnc(C2CC2)c1-c1ncc2c3ccc(P4(=O)CCCC4)cc3n(Cc3ccc(-c4nc(C(F)(F)F)c5n4CCC5)cc3)c2n1 [Compound 142] | 6.2 |
| COc1ncnc(C2CC2)c1-c1ncc2c3cn(C)nc3n(Cc3ccc(-c4nc(C(F)(F)F)c5n4CCC5)c(F)c3)c2n1 [Compound 143] | 4.67 |
| [2H]C([2H])([2H])n1cc2c3cnc(-c4c(OC)ncnc4C4CC4)nc3n(Cc3ccc(-c4nc(C(F)(F)F)cn4C(C)C)c(F)c3)c2n1 [Compound 145] | 5.91 |

Compounds with a lower IC50, results first:

| IC50 [nM] | Structure (SMILES) |
| --- | --- |
| 4.13 | CNc1ccc2c3cnc(-c4c(OC)ncnc4C4CC4)nc3n(Cc3ccc(-c4nc(C(F)(F)F)cn4C)cc3)c2n1 [Compound 74] |
| 4 | COc1ncnc(C2CC2)c1-c1ncc2c3ccc(P4(=O)CCCC4)cc3n(Cc3ccc(-c4nc(C(F)(F)F)cn4C(C)C)c(F)c3)c2n1 [Compound 141] |
| 3.69 | COc1ncnc(C2CC2)c1-c1ncc2c3ccc(F)nc3n(Cc3ccc4c(c3)CCCn3cc(C(F)(F)F)nc3-4)c2n1 [Compound 94] |
| 3.65 | COc1ncnc(C2CC2)c1-c1ncc2c3ccncc3n(Cc3ccc4c(c3)CCCCn3cc(C(F)(F)F)nc3-4)c2n1 [Compound 90] |
| 3.57 | COc1ncnc(C2CC2)c1-c1ncc2c3cn(C)nc3n(Cc3ccc(-c4nc(C(F)(F)F)cn4C)c(F)c3)c2n1 [Compound 118] |
| 3.54 | COc1ncnc(C2CC2)c1-c1ncc2c3cc(F)cnc3n(Cc3ccc(-c4nc(C(F)(F)F)cn4C)cc3)c2n1 [Compound 117] |
| 3.17 | COc1ncnc(C2CC2)c1-c1ncc2c3cn(C)nc3n(Cc3cc(F)c(-c4nc(C(F)(F)F)c5n4CCC5)c(F)c3)c2n1 [Compound 144] |
| 3.14 | COc1ncnc(C2CC2)c1-c1ncc2c3ccncc3n(Cc3ccc4c(c3)CCCn3cc(C(F)(F)F)nc3-4)c2n1 [Compound 61] |
| 3.13 | COc1ncnc(C2CC2)c1-c1ncc2c3ccc(N(C(C)C)S(C)(=O)=O)cc3n(Cc3ccc4c(c3)CCCn3cc(C(F)(F)F)nc3-4)c2n1 [Compound 99] |
| 3.03 | COc1ncnc(C2CC2)c1-c1ncc2c3cn(C)nc3n(Cc3cc(F)c(-c4nc(C(F)(F)F)cn4C)c(F)c3)c2n1 [Compound 115] |
| 2.74 | COc1ncnc(C2CC2)c1-c1ncc2c3cccnc3n(Cc3ccc4c(c3)CCCn3cc(C(F)(F)F)nc3-4)c2n1 [Compound 63] |
| 2.56 | COc1ccc2c3cnc(-c4c(OC)ncnc4C4CC4)nc3n(Cc3ccc4c(c3)CCCn3cc(C(F)(F)F)nc3-4)c2n1 [Compound 93] |
| 2.1 | COc1ncnc(C2CC2)c1-c1ncc2c3ccc(NCCO)nc3n(Cc3ccc4c(c3)CCCn3cc(C(F)(F)F)nc3-4)c2n1 [Compound 97] |
| 2.04 | CC(C)c1ccccc1-c1ncc2c3ccncc3n(Cc3ccc(-c4nc(C(F)(F)F)cn4C)cc3)c2n1 [Compound 79] |
| 1.97 | COc1ncnc(C2CC2)c1-c1ncc2c3cn(C)nc3n(Cc3ccc(-c4nc(C(F)(F)F)c5n4CCCC5)cc3)c2n1 [Compound 120] |
| 1.89 | COc1ncnc(C2CC2)c1-c1ncc2c3cn(C)nc3n(Cc3ccc(-c4nc(C(F)(F)F)c5n4CCC5)cc3)c2n1 [Compound 114] |
| 1.8 | COc1ncnc(C2CC2)c1-c1ncc2c3cn(C)nc3n(Cc3ccc4c(c3)CCCCn3cc(C(F)(F)F)nc3-4)c2n1 [Compound 138] |
| 1.62 | CCn1cc(C(F)(F)F)nc1-c1ccc(Cn2c3cnccc3c3cnc(-c4c(OC)ncnc4C4CC4)nc32)cc1 [Compound 66] |
| 1.54 | COc1ncnc(C2CC2)c1-c1ncc2c3ccc(N4CC(OC)C4)nc3n(Cc3ccc4c(c3)CCCn3cc(C(F)(F)F)nc3-4)c2n1 [Compound 137] |
| 1.34 | COc1ncnc(C2CC2)c1-c1ncc2c3ccc(N4CC(O)C4)nc3n(Cc3ccc4c(c3)CCCn3cc(C(F)(F)F)nc3-4)c2n1 [Compound 136] |
